Test results taken from ChEMBL document CHEMBL1201862, “PubChem BioAssay data set” (2004).
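Test compounds were applied to cells in 96-well plates for 48 hours at 5 doses. Here, GI50 denotes the concentration required for 50% inhibition of growth.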 Activity calls are given as the source filed them. No stated cut-off is given here; in the data, active = GI50 up to about 1.1 µM and inactive = higher.

Columns and labels:
Experiment in all cases: NCI tumour cell line growth inhibition, 48 h
[1] = system: NCI-H460
[2] = system: HOP-92
[3] = system: Malme-3M
[4] = system: NCI-H522
[5] = system: SNB-75
[6] = system: LOX IMVI
[7] = system: OVCAR-4
[8] = system: RPMI-8226
[9] = system: HOP-18
[10] = system: DLD-1
[11] = system: SW-620
[12] = system: A498
[13] = system: SNB-78
[14] = system: KM12
[15] = system: SK-OV-3
[16] = system: OVCAR-5
[17] = system: K562
[18] = system: ACHN
[19] = system: LXFL 529
[20] = system: UO-31
[21] = system: MOLT-4
[22] = system: A549
[23] = system: HCC 2998
[24] = system: OVCAR-3
[25] = system: DMS-273
[26] = system: UACC-257
[27] = system: DMS-114
[28] = system: U-251
[29] = system: SK-MEL-28
[30] = system: SF-295
[31] = system: HOP-62
[32] = system: HT-29
[33] = system: IGROV-1
[34] = system: 786-0
[35] = system: CAKI-1
[36] = system: SK-MEL-5
[37] = system: COLO 205
[38] = system: EKVX
[39] = system: SF-539
[40] = system: OVCAR-8
[41] = system: UACC-62
[42] = system: NCI-H23
[43] = system: SN12C
[44] = system: SNB-19
[45] = system: NCI-H226
[46] = system: TK-10
[47] = system: HCT-116
[48] = system: SF-268
[49] = system: SK-MEL-2
[50] = system: M14
[51] = system: M19-MEL
[52] = system: SR
[53] = system: CCRF-CEM
[54] = system: XF498
[55] = system: HL-60
[56] = system: RXF 393
[57] = system: KM-20L2
[58] = system: HCT-15
[59] = system: MDA-MB-435
[60] = system: BT-549
[61] = system: DU-145
[62] = system: Hs-578T
[63] = system: MDA-MB-231
[64] = system: MDA-N
[65] = system: PC-3
[66] = system: T47D

CC12CC3CC(C)(C1)CC(N=[N+]=[N-])(C3)C2
GI50 [1]: > 100 µM (inactive)
GI50 [2]: > 100 µM (inactive)
GI50 [3]: > 100 µM (inactive)
GI50 [4]: > 100 µM (inactive)
GI50 [5]: > 100 µM (inactive)
GI50 [6]: > 100 µM (inactive)
GI50 [7]: > 100 µM (inactive)
GI50 [8]: > 100 µM (inactive)
GI50 [9]: > 100 µM (inactive)
GI50 [10]: > 100 µM (inactive)
GI50 [11]: > 100 µM (inactive)
GI50 [12]: > 100 µM (inactive)
GI50 [13]: > 100 µM (inactive)
GI50 [14]: > 100 µM (inactive)
GI50 [15]: > 100 µM (inactive)
GI50 [16]: > 100 µM (inactive)
GI50 [17]: > 100 µM (inactive)
GI50 [18]: > 100 µM (inactive)
GI50 [19]: > 100 µM (inactive)
GI50 [20]: > 100 µM (inactive)
GI50 [21]: > 100 µM (inactive)
GI50 [22]: > 100 µM (inactive)
GI50 [23]: > 100 µM (inactive)
GI50 [24]: > 100 µM (inactive)
GI50 [25]: > 100 µM (inactive)
GI50 [26]: > 100 µM (inactive)
GI50 [27]: > 100 µM (inactive)
GI50 [28]: > 100 µM (inactive)
GI50 [29]: > 100 µM (inactive)
GI50 [30]: > 100 µM (inactive)
GI50 [31]: > 100 µM (inactive)
GI50 [32]: > 100 µM (inactive)
GI50 [33]: > 100 µM (inactive)
GI50 [34]: > 100 µM (inactive)
GI50 [35]: > 100 µM (inactive)
GI50 [36]: > 100 µM (inactive)
GI50 [37]: > 100 µM (inactive)
GI50 [38]: > 100 µM (inactive)
GI50 [39]: > 100 µM (inactive)
GI50 [40]: > 100 µM (inactive)
GI50 [41]: > 100 µM (inactive)
GI50 [42]: > 100 µM (inactive)
GI50 [43]: > 100 µM (inactive)
GI50 [44]: > 100 µM (inactive)
GI50 [45]: > 100 µM (inactive)
GI50 [46]: > 100 µM (inactive)
GI50 [47]: > 100 µM (inactive)
GI50 [48]: > 100 µM (inactive)
GI50 [49]: > 100 µM (inactive)
GI50 [50]: > 100 µM (inactive)
GI50 [51]: > 100 µM (inactive)
GI50 [52]: > 100 µM (inactive)
GI50 [53]: > 100 µM (inactive)
GI50 [54]: > 100 µM (inactive)

C/C(CC(=O)Nc1cccc(Cl)c1C)=N\N=C(N)N
GI50 [1]: > 100 µM (inactive)
GI50 [2]: > 100 µM (inactive)
GI50 [55]: > 100 µM (inactive)
GI50 [3]: > 100 µM (inactive)
GI50 [4]: > 100 µM (inactive)
GI50 [5]: > 100 µM (inactive)
GI50 [6]: > 100 µM (inactive)
GI50 [7]: > 100 µM (inactive)
GI50 [8]: > 100 µM (inactive)
GI50 [9]: > 100 µM (inactive)
GI50 [10]: > 100 µM (inactive)
GI50 [12]: > 100 µM (inactive)
GI50 [13]: > 100 µM (inactive)
GI50 [14]: > 100 µM (inactive)
GI50 [15]: > 100 µM (inactive)
GI50 [16]: > 100 µM (inactive)
GI50 [17]: 24.1 µM (inactive)
GI50 [18]: > 100 µM (inactive)
GI50 [19]: > 100 µM (inactive)
GI50 [20]: > 100 µM (inactive)
GI50 [56]: > 100 µM (inactive)
GI50 [21]: > 100 µM (inactive)
GI50 [22]: > 100 µM (inactive)
GI50 [23]: > 100 µM (inactive)
GI50 [24]: > 100 µM (inactive)
GI50 [25]: 97.1 µM (inactive)
GI50 [26]: > 100 µM (inactive)
GI50 [27]: > 100 µM (inactive)
GI50 [28]: > 100 µM (inactive)
GI50 [29]: > 100 µM (inactive)
GI50 [30]: > 100 µM (inactive)
GI50 [31]: > 100 µM (inactive)
GI50 [32]: > 100 µM (inactive)
GI50 [33]: > 100 µM (inactive)
GI50 [34]: > 100 µM (inactive)
GI50 [35]: > 100 µM (inactive)
GI50 [36]: > 100 µM (inactive)
GI50 [37]: > 100 µM (inactive)
GI50 [38]: > 100 µM (inactive)
GI50 [39]: > 100 µM (inactive)
GI50 [40]: > 100 µM (inactive)
GI50 [41]: > 100 µM (inactive)
GI50 [42]: > 100 µM (inactive)
GI50 [43]: > 100 µM (inactive)
GI50 [57]: 42.6 µM (inactive)
GI50 [44]: > 100 µM (inactive)
GI50 [45]: > 100 µM (inactive)
GI50 [46]: > 100 µM (inactive)
GI50 [47]: > 100 µM (inactive)
GI50 [58]: > 100 µM
GI50 [48]: > 100 µM (inactive)
GI50 [49]: > 100 µM (inactive)
GI50 [50]: > 100 µM (inactive)
GI50 [51]: > 100 µM (inactive)
GI50 [53]: > 100 µM (inactive)
GI50 [54]: > 100 µM (inactive)

CCCCNC1=C(C(=O)OCC)/C(=N/NC(=O)c2ccccc2O)CO1
GI50 [1]: 33.3 µM (inactive)
GI50 [55]: 24.8 µM (inactive)
GI50 [3]: 35.2 µM (inactive)
GI50 [4]: 13.4 µM (inactive)
GI50 [5]: 1.73 µM (inactive)
GI50 [6]: 25.5 µM (inactive)
GI50 [7]: 19.4 µM (inactive)
GI50 [8]: 86.7 µM (inactive)
GI50 [9]: 62.2 µM (inactive)
GI50 [10]: 18.2 µM (inactive)
GI50 [11]: 39 µM (inactive)
GI50 [12]: > 100 µM (inactive)
GI50 [13]: 6.93 µM (inactive)
GI50 [14]: 79.3 µM (inactive)
GI50 [15]: > 100 µM (inactive)
GI50 [16]: 59.7 µM (inactive)
GI50 [17]: 13.2 µM (inactive)
GI50 [19]: 38 µM (inactive)
GI50 [20]: 4.54 µM (inactive)
GI50 [56]: 23.8 µM (inactive)
GI50 [21]: 40.1 µM (inactive)
GI50 [22]: 47.8 µM (inactive)
GI50 [23]: 34.4 µM (inactive)
GI50 [24]: 27.1 µM (inactive)
GI50 [26]: 2.82 µM (inactive)
GI50 [27]: 36.7 µM (inactive)
GI50 [28]: 20.1 µM (inactive)
GI50 [29]: 18.5 µM (inactive)
GI50 [30]: 76.6 µM (inactive)
GI50 [31]: 17.6 µM (inactive)
GI50 [33]: 8.99 µM (inactive)
GI50 [34]: 32.1 µM (inactive)
GI50 [35]: 8.53 µM (inactive)
GI50 [36]: 29.2 µM (inactive)
GI50 [37]: > 100 µM (inactive)
GI50 [38]: > 100 µM (inactive)
GI50 [39]: 11.8 µM (inactive)
GI50 [40]: 95.1 µM (inactive)
GI50 [41]: 13.1 µM (inactive)
GI50 [42]: 18.8 µM (inactive)
GI50 [43]: 61 µM (inactive)
GI50 [57]: > 100 µM (inactive)
GI50 [44]: > 100 µM (inactive)
GI50 [45]: 18.5 µM (inactive)
GI50 [46]: 98.4 µM (inactive)
GI50 [47]: 6.68 µM (inactive)
GI50 [48]: 6.97 µM (inactive)
GI50 [49]: 18.4 µM (inactive)
GI50 [50]: 37.2 µM (inactive)
GI50 [51]: > 100 µM (inactive)
GI50 [53]: 23.7 µM (inactive)
GI50 [54]: > 100 µM (inactive)

CCOC(=O)C(CC(C)C)NC(=O)C(N)Cc1ccc(N(CCCl)CCCl)cc1 (stereo unspecified)
GI50 [1]: 0.0478 µM (active)
GI50 [2]: 3.18 µM (inactive)
GI50 [55]: 0.134 µM (active)
GI50 [3]: 1.75 µM (inactive)
GI50 [4]: 2.66 µM (inactive)
GI50 [5]: 3.94 µM (inactive)
GI50 [7]: 1.6 µM (inactive)
GI50 [8]: 5.61 µM (inactive)
GI50 [9]: 4.24 µM (inactive)
GI50 [10]: 2.52 µM (inactive)
GI50 [11]: 6.62 µM (inactive)
GI50 [59]: 16.9 µM (inactive)
GI50 [12]: 13.9 µM (inactive)
GI50 [14]: 12.9 µM (inactive)
GI50 [15]: 3.65 µM (inactive)
GI50 [16]: 11.8 µM (inactive)
GI50 [60]: 15.8 µM (inactive)
GI50 [17]: 1.58 µM (inactive)
GI50 [18]: 0.333 µM (active)
GI50 [19]: 2.8 µM (inactive)
GI50 [20]: 2.17 µM (inactive)
GI50 [56]: 2.01 µM (inactive)
GI50 [21]: 0.0637 µM (active)
GI50 [22]: 6.95 µM (inactive)
GI50 [61]: 4.9 µM (inactive)
GI50 [23]: 7.35 µM (inactive)
GI50 [24]: 1.95 µM (inactive)
GI50 [25]: 0.632 µM (active)
GI50 [26]: 10.3 µM (inactive)
GI50 [62]: 18.6 µM (inactive)
GI50 [27]: 1.69 µM (inactive)
GI50 [28]: 3.79 µM (inactive)
GI50 [29]: 4.81 µM (inactive)
GI50 [30]: 4.39 µM (inactive)
GI50 [31]: 4.86 µM (inactive)
GI50 [32]: 2.13 µM (inactive)
GI50 [33]: 13.7 µM (inactive)
GI50 [63]: 15.7 µM (inactive)
GI50 [64]: 12.6 µM (inactive)
GI50 [65]: 10.9 µM (inactive)
GI50 [34]: 1.69 µM (inactive)
GI50 [35]: 3.11 µM (inactive)
GI50 [36]: 5.62 µM (inactive)
GI50 [37]: 4.22 µM (inactive)
GI50 [38]: 17.9 µM (inactive)
GI50 [39]: 2.57 µM (inactive)
GI50 [40]: 4.91 µM (inactive)
GI50 [41]: 1.35 µM (inactive)
GI50 [42]: 1.57 µM (inactive)
GI50 [43]: 5.6 µM (inactive)
GI50 [57]: 3.33 µM (inactive)
GI50 [44]: 12 µM (inactive)
GI50 [45]: 9.71 µM (inactive)
GI50 [46]: 9.71 µM (inactive)
GI50 [47]: 3.12 µM (inactive)
GI50 [58]: 2.38 µM
GI50 [48]: 3.56 µM (inactive)
GI50 [49]: 4.83 µM (inactive)
GI50 [50]: 2.83 µM (inactive)
GI50 [66]: 2.35 µM (inactive)
GI50 [51]: 1.65 µM (inactive)
GI50 [52]: 0.0232 µM (active)
GI50 [53]: 0.104 µM (active)
GI50 [54]: 1.52 µM (inactive)
